The source made the active and inactive calls.
Tests used:
[1] = tested on: HeLa; test: HeLa cell cytotoxicity, dose response, cytotoxicity control for MITF activator project, CellTiter-Glo luminescence, cherry-pick samples (AID 540259); assay type: functional, cell-based; details: Homo sapiens
[2] = molecular target: Beta-2 adrenergic receptor (Homo sapiens, UniProt P07550); test: beta2AR agonists driving receptor internalization, dose response, cell-based, FAP fluorogen, flow cytometry, cherry pick 1 (AID 588763); assay type: functional
[3] = cells; assay type: functional
[4] = tested on: Vero; test: cells; assay type: functional, cell-based; details: Chlorocebus sabaeus
[5] = Luminescence Cell-Based Dose Confirmation HTS to Identify Activators of 5'UTR Stem-Loop Driven Alpha-Synuclein mRNA Translation in H4 Neuroglioblastoma Cells. [Related pubchem assays: 1829 (Project Summary), 1814 (Primary HTS)]; assay type: functional
[6] = tested on: H4; test: Luminescence Cell-Based Dose Response HTS to Identify Activators of 5'UTR Stem-Loop Driven Prion Protein mRNA Translation in H4 Neuroglioblastoma Cells. [Related pubchem assays: 1829 (Project Summary), 1814 (Primary HTS)]; assay type: functional; details: Homo sapiens
[7] = Luminescence Cell-Based Dose Response HTS to Identify Activators of Luciferase Translation or Activity in H4 […] Cells. [Related pubchem assays: 1829 (Project Summary), 1814 (Primary HTS)]; assay type: functional
[8] = tested on: Vero; test: cells; assay type: functional; details: Chlorocebus sabaeus
[9] = molecular target: Glucose-6-phosphate 1-dehydrogenase (Homo sapiens, UniProt P11413); test: human G6PD enzyme inhibitors, dose response, selectivity assay for P. falciparum G6PD inhibitor project, biochemical, fluorescence (AID 504792); assay type: functional
Chain of Glucose-6-phosphate 1-dehydrogenase (P11413 whole entry): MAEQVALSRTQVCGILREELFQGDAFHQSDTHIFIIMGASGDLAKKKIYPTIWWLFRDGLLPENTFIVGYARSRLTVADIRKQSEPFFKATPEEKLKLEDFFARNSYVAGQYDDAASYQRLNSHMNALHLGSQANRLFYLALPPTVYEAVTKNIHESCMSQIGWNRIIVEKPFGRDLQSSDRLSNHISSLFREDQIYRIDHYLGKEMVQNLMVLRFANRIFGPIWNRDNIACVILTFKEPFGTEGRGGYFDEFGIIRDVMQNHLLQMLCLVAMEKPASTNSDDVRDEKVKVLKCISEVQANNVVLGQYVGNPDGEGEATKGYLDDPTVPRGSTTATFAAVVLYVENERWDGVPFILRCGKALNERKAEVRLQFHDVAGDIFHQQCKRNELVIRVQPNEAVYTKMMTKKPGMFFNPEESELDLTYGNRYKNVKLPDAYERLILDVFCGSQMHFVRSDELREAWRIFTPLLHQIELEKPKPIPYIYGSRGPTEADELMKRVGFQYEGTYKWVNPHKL

Chain of Beta-2 adrenergic receptor (P07550 whole entry): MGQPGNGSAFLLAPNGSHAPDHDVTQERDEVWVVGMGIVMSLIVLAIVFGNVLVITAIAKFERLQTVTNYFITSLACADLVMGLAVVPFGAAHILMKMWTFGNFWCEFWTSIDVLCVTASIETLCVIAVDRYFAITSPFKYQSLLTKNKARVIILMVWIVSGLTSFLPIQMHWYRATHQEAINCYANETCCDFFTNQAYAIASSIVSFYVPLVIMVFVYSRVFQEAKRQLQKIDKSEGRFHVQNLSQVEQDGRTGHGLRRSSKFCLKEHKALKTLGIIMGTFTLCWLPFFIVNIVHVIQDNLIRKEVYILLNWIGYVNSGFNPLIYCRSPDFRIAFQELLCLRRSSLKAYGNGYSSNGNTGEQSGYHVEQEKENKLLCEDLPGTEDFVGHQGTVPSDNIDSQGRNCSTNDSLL

O=C(NCCC1=CCCCC1)c1ccc(-n2cncn2)cc1
AC50 [1]: > 350 µM (inactive)

Cc1cc(C)c2c(N)c(-c3nnc(SCc4ccc(Cl)cc4)n3C)sc2n1
EC50 [2]: 0.252 µM (active)

COc1cccc(OCc2nnc(-c3cccs3)o2)c1
EC50 [2]: 10.7 µM (inactive)
IC50 [3]: 5.57 µM (active)

O=C(c1ccc(Cl)cc1)C(CN1CCCC1)c1ccccc1 (stereo not given)
IC50 [4]: > 25 µM (active)
EC50 [5]: > 120 µM (not active)
EC50 [6]: > 120 µM (not active)
EC50 [7]: > 120 µM (not active)
CC50 [8]: 23 µM (active)

CCc1nnc(NC(=O)c2ccc(Cl)nc2)s1
IC50 [9]: > 80 µM (inactive)
